Source: patent US7202081B2, “Simultaneous determination of cell proliferation inhibition activity and toxicity” (Hoffmann-La Roche Inc., priority 2003, dated 2007)
Like-named read-outs stand apart in the source and are kept apart here.

System: Human cord blood CD34+ cells
Test: cells
Type: cell-based
Conditions: for proliferation inhibition: CD34 cells, cell number, FIG. 3, concentration range for which the percentage of dead cells is stated; for IC50: Homo sapiens, cytokine stimulated CD34 cells; for percentage of dead cells to total cells: human
Description: Human cord blood CD34+ cells were isolated to high purity (>90%) by immunomagnetic cell sorting, aliquoted and frozen in DMSO containing medium. For cell culture setup, frozen CD34+ cells were thawed and 200 cells were seeded in 200 μl complete medium of a well of a 96 well plate. The basal cell culture medium consisted of IMDM-Medium supplemented with 20% human AB serum and antibiotics (pen/strep). The CD34+ cells were activated by addition of following cytokine cocktail: hu-SCF (100 ng/ml), hu-IL6 (10 ng/ml), hu-GM-CSF (100 U/ml), hu-TPO (25 ng/ml) and hu-EPO (5 U/ml). Cultivation was performed in incubators at 37° C., high humidity and 7% CO2.
Two different experimental setup were used: 1) addition of the inhibitor compound prior supplementation of the medium with cytokines to hit preferentially resting cells, and 2) addition of inhibitor compound 4 days after CD34 activation with cytokines to hit preferentially activated cells.
Dependent on the proliferation rate of the CD34+ cells, harvest and analysis of cell number and cytotoxicity was performed after 9–10 d cell culture. The cell number and cytotoxicity was analysed by FACS technique. The number of cells present in the well was counted by comparison with an internal bead standard. A aliquot of 10000 beads was added to each well harboring 200 μl medium volume FLUOSPHERES® polystyrene, 15 μm; Molecular Probes).
A gate, shown as rectangular region, was set onto the standard beads, a distinct number was counted, analysis was stopped and the corresponding volume of medium containing cells was calculated. […] The viable cells appear again in the middle/right position of the forward scatter (FSC) displaying low/no propidium iodide labeling. The few dead cells appear left or in the upper/left position relative to viable cell population. The FACS measurement took an aliqout count of the beads and calculated the number of cells being present within the well, whereas the cytotoxicity, the number of dead cells, was recorded in parallel during this measurement (addition of propidium iodide; final concentration 1 μg/ml). […] At the highest inhibitory and cytotoxic concentration very few cells were present anymore in the viable cell cluster and the majority of cells had been killed as evident by increased PI staining or fragmentation (panel H).
A typical example of the calculation of the number of CD34 cells and percentage of dead cells in a well is shown in FIG. 3 for two cytotoxic compounds, namely 5-fluorouracil and doxorubicine. […] The increase of the percentage of dead cells obtained from the analysis of the PI positive cell fraction (FIG. 2 panels E to H) is shown as solid line.

IC50 (240 h, 9–10 d culture, FACS count against bead standard, tested 1–1000 ng/ml, read-out: IC50 value (cell number) from IC50 calculation program) [ng/mL] | IC50 (FIG. 3 legend, tested 1–1000 ng/ml, read-out: IC50 value for the cell number analysis) [ng/mL] | percentage of dead cells to total cells | IC50 (240 h, 9–10 d culture, FACS count against bead standard, tested 0.1–100 μmol/l, read-out: IC50 value for the cell number analysis) [nM] | SMILES | proliferation inhibition
0.67 | 0.67 | ~40% | – | COc1cccc2c1C(=O)c1c(O)c3c(c(O)c1C2=O)C[C@@](O)(C(=O)CO)C[C@@H]3O[C@H]1C[C@H](N)[C@H](O)[C@H](C)O1 [doxorubicine] | about 80%
– | – | 0-25% | 340 | O=c1[nH]cc(F)c(=O)[nH]1 [5-fluorouracil] | more than 50%
